These results are taken from US12060347B2 (BRISTOL-MYERS SQUIBB COMPANY, priority 2016, dated 2024).

This assay concerns the target T1, human PAR4 (Homo sapiens, UniProt Q96RI0).
T1 construct: expressed in transfected cells; host or cells: HEK293 PAR4 Clone 1.2A (BMS Arctic ID 383940)
T1 sequence (Q96RI0 18-385): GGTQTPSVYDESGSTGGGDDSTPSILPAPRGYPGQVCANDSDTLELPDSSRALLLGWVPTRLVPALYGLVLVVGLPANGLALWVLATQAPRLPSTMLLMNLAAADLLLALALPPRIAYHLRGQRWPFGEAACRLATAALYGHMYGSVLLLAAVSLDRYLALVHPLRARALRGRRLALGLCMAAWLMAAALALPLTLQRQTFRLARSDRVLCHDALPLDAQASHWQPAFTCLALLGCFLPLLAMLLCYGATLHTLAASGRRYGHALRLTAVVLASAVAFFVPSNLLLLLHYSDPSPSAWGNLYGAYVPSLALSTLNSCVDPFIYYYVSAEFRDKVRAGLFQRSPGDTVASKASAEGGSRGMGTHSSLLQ
Briefly: PAR4 FLIPR assay: antagonism of agonist-peptide-induced calcium mobilization in PAR4-expressing HEK293 cells. Type of assay: cell-based. As to conditions: H-Ala-Phe(4-F)-[…]NH2-induced intracellular calcium mobilization, 11-point curves.

As usually defined, the IC50 is the concentration needed to halve the response being measured. In the case of `COc1cnc2c(-c3nc4cc(F)c(OC[C@@H](C)OC(=O)Nc5ccc(C(=O)N6CCO[C@H](CO)C6)nc5)cc4s3)cc(C)cc2n1` [Example 477, (R)-1-((5-fluoro-2-(2-methoxy-7-methylquinoxalin-5-yl)benzo[d]thiazol-6-yl)oxy)propan-2-yl (6-((S)-2-(hydroxymethyl)morpholine-4-carbonyl)pyridin-3-yl)carbamate], the half-inhibitory concentration (IC50) worked out at 3 nM.
The result for `COc1cnc2c(-c3nc4cc(F)c(OC[C@@H](C)OC(=O)Nc5ccc(C(=O)N6CC[C@H](O)C6)nc5)cc4s3)cc(C)cc2n1` [Example 478, (R)-1-((5-fluoro-2-(2-methoxy-7-methylquinoxalin-5-yl)benzo[d]thiazol-6-yl)oxy)propan-2-yl (6-((S)-3-hydroxypyrrolidine-1-carbonyl)pyridin-3-yl)carbamate] reads 9.1 nM; that for `COc1cnc2c(-c3nc4cc(F)c(OC[C@@H](C)OC(=O)Nc5ccc(C(=O)N6CC[C@H](CO)C6)nc5)cc4s3)cc(C)cc2n1` [Example 479, (R)-1-((5-fluoro-2-(2-methoxy-7-methylquinoxalin-5-yl)benzo[d]thiazol-6-yl)oxy)propan-2-yl (6-((S)-3-(hydroxymethyl)pyrrolidine-1-carbonyl)pyridin-3-yl)carbamate], 1.4 nM.
The result for `COc1cnc2c(-c3nc4cc(F)c(OC[C@@H](C)OC(=O)Nc5ccc(C(=O)N6CCO[C@@H](CO)C6)nc5)cc4s3)cc(C)cc2n1` [Example 480, (R)-1-((5-fluoro-2-(2-methoxy-7-methylquinoxalin-5-yl)benzo[d]thiazol-6-yl)oxy)propan-2-yl (6-((R)-2-(hydroxymethyl)morpholine-4-carbonyl)pyridin-3-yl)carbamate] reads 3.4 nM; that for `COc1cnc2c(-c3nc4cc(F)c(O[C@@H](C)[C@@H](C)OC(=O)Nc5ccc(C(=O)N6CCC[C@H](O)C6)nc5)cc4s3)cc(C)cc2n1` [Example 481, (2R,3S)-3-((5-fluoro-2-(2-methoxy-7-methylquinoxalin-5-yl)benzo[d]thiazol-6-yl)oxy)butan-2-yl (6-((S)-3-hydroxypiperidine-1-carbonyl)pyridin-3-yl)carbamate], 0.6 nM.
For the compound `COc1cnc2c(-c3nc4cc(F)c(O[C@@H](C)[C@@H](C)OC(=O)Nc5ccc(C(=O)N6CC[C@H](CO)C6)nc5)cc4s3)cc(C)cc2n1` [Example 482, (2R,3S)-3-((5-fluoro-2-(2-methoxy-7-methylquinoxalin-5-yl)benzo[d]thiazol-6-yl)oxy)butan-2-yl (6-((S)-3-(hydroxymethyl)pyrrolidine-1-carbonyl)pyridin-3-yl)carbamate], the IC50 turned out to be 0.6 nM.
The result for `COc1cnc2c(-c3nc4cc(F)c(O[C@@H](C)[C@@H](C)OC(=O)Nc5ccc(C(=O)N6CCC[C@@H](O)C6)nc5)cc4s3)cc(C)cc2n1` [Example 483, (2R,3S)-3-((5-fluoro-2-(2-methoxy-7-methylquinoxalin-5-yl)benzo[d]thiazol-6-yl)oxy)butan-2-yl (6-((R)-3-hydroxypiperidine-1-carbonyl)pyridin-3-yl)carbamate] reads 0.8 nM.
The result for `COc1cnc2c(-c3nc4cc(F)c(OC[C@@H](C)OC(=O)Nc5ccc(C(=O)N6CCC[C@H](O)C6)nc5)cc4s3)cc(C)cc2n1` [Example 484, (R)-1-((5-fluoro-2-(2-methoxy-7-methylquinoxalin-5-yl)benzo[d]thiazol-6-yl)oxy)propan-2-yl (6-((S)-3-hydroxypiperidine-1-carbonyl)pyridin-3-yl)carbamate] reads 1 nM; that for `COc1cnc2c(-c3nc4cc(F)c(OC[C@@H](C)OC(=O)Nc5ccc(C(=O)N6CCC[C@@H](O)C6)nc5)cc4s3)cc(C)cc2n1` [Example 485, (R)-1-((5-fluoro-2-(2-methoxy-7-methylquinoxalin-5-yl)benzo[d]thiazol-6-yl)oxy)propan-2-yl (6-((R)-3-hydroxypiperidine-1-carbonyl)pyridin-3-yl)carbamate], 1.6 nM.
The result for `COc1cnc2c(-c3nc4cc(F)c(O[C@@H](C)[C@@H](C)OC(=O)Nc5ccc(C(=O)N6CCOC[C@@H]6CO)nc5)cc4s3)cc(C)cc2n1` [Example 487, (2R,3S)-3-((5-fluoro-2-(2-methoxy-7-methylquinoxalin-5-yl)benzo[d]thiazol-6-yl)oxy)butan-2-yl (6-((S)-3-(hydroxymethyl)morpholine-4-carbonyl)pyridin-3-yl)carbamate] reads 1.3 nM.
As for `COc1cnc2c(-c3nc4cc(F)c(OC[C@@H](C)OC(=O)Nc5ccc(C(=O)N6CCOC[C@H]6CO)nc5)cc4s3)cc(C)cc2n1` [Example 488, (R)-1-((5-fluoro-2-(2-methoxy-7-methylquinoxalin-5-yl)benzo[d]thiazol-6-yl)oxy)propan-2-yl (6-((R)-3-(hydroxymethyl)morpholine-4-carbonyl)pyridin-3-yl)carbamate], the IC50 is 14 nM.
As for `COc1cnc2c(-c3nc4cc(F)c(OC[C@@H](C)OC(=O)Nc5ccc(C(=O)N6CCOC[C@@H]6CO)nc5)cc4s3)cc(C)cc2n1` [Example 489, (R)-1-((5-fluoro-2-(2-methoxy-7-methylquinoxalin-5-yl)benzo[d]thiazol-6-yl)oxy)propan-2-yl (6-((S)-3-(hydroxymethyl)morpholine-4-carbonyl)pyridin-3-yl)carbamate], the IC50 turned out to be 9.1 nM.
For `Cc1cc(-c2nc3cc(F)c(O[C@@H](C)[C@@H](C)OC(=O)Nc4cnc(C)nc4)cc3s2)c2ncc(OC(F)F)nc2c1` [Example 490, (2R,3S)-3-((2-(2-(difluoromethoxy)-7-methylquinoxalin-5-yl)-5-fluorobenzo[d]thiazol-6-yl)oxy)butan-2-yl (2-methylpyrimidin-5-yl)carbamate], the IC50 is 5.1 nM.
The result for `CCCOc1cnc2c(-c3nc4cc(F)c(O[C@@H](C)[C@@H](C)OC(=O)Nc5cnc(C)nc5)cc4s3)cc(C)cc2n1` [Example 491, (2R,3S)-3-((5-fluoro-2-(7-methyl-2-propoxyquinoxalin-5-yl)benzo[d]thiazol-6-yl)oxy)butan-2-yl (2-methylpyrimidin-5-yl)carbamate] reads 0.4 nM.
In the case of `Cc1cc(-c2nc3cc(F)c(O[C@@H](C)[C@@H](C)OC(=O)Nc4cnc(C)nc4)cc3s2)c2ncc(OC(C)C)nc2c1` [Example 492, (2R,3S)-3-((5-fluoro-2-(2-isopropoxy-7-methylquinoxalin-5-yl)benzo[d]thiazol-6-yl)oxy) butan-2-yl (2-methylpyrimidin-5-yl)carbamate], the IC50 was 7.4 nM.
In the case of `Cc1cc(-c2nc3cc(F)c(O[C@@H](C)[C@@H](C)OC(=O)Nc4cnc(C)nc4)cc3s2)c2ncc(OCCO)nc2c1` [Example 493, (2R,3S)-3-((5-fluoro-2-(2-(2-hydroxyethoxy)-7-methylquinoxalin-5-yl)benzo[d]thiazol-6-yl)oxy)butan-2-yl (2-methylpyrimidin-5-yl)carbamate], the IC50 was 21 nM.
The result for `COc1cnc2c(-c3nc4c(Cl)c(F)c(OC[C@@H](C)OC(=O)Nc5ccnc(CO)c5)cc4s3)cc(C)cc2n1` [Example 494, (R)-1-((4-chloro-5-fluoro-2-(2-methoxy-7-methylquinoxalin-5-yl)benzo[d]thiazol-6-yl)oxy)propan-2-yl (2-(hydroxymethyl)pyridin-4-yl)carbamate] reads 1.8 nM.
For the compound `COc1cnc2c(-c3nc4cc(F)c(OC[C@@H](C)OC(=O)Nc5ccnc(CO)c5)cc4s3)cc(C)cc2n1` [Example 495, (R)-1-((5-fluoro-2-(2-methoxy-7-methylquinoxalin-5-yl)benzo[d]thiazol-6-yl)oxy)propan-2-yl (2-(hydroxymethyl)pyridin-4-yl)carbamate], the IC50 was determined as 15 nM.
On to `COc1cnc2c(-c3nc4cc(F)c(OC[C@@H](C)OC(=O)Nc5cnc(CO)nc5)cc4s3)cc(C)cc2n1` [Example 496, (R)-1-((5-fluoro-2-(2-methoxy-7-methylquinoxalin-5-yl)benzo[d]thiazol-6-yl)oxy)propan-2-yl (2-(hydroxymethyl)pyrimidin-5-yl)carbamate], for which the IC50 worked out at 1.9 nM.
For the compound `COc1cnc2c(-c3nc4cc(F)c(OC[C@@H](C)OC(=O)Nc5cnc(C(C)(C)O)nc5)cc4s3)cc(C)cc2n1` [Example 497, (R)-1-((5-fluoro-2-(2-methoxy-7-methylquinoxalin-5-yl)benzo[d]thiazol-6-yl)oxy)propan-2-yl (2-(2-hydroxypropan-2-yl)pyrimidin-5-yl)carbamate], the IC50 was found to be 1.3 nM.
As to `COc1cnc2c(-c3nc4cc(F)c(OC[C@@H](C)OC(=O)Nc5ccc(C(C)(C)O)nc5)cc4s3)cc(C)cc2n1` [Example 498, (R)-1-((5-fluoro-2-(2-methoxy-7-methylquinoxalin-5-yl)benzo[d]thiazol-6-yl)oxy)propan-2-yl (6-(2-hydroxypropan-2-yl)pyridin-3-yl)carbamate], the IC50 is 1.3 nM.
The result for `COc1cnc2c(-c3nc4cc(F)c(O[C@@H](C)[C@@H](C)OC(=O)Nc5ccc(CO)nc5)cc4s3)cc(C)cc2n1` [Example 499, (2R,3S)-3-((5-fluoro-2-(2-methoxy-7-methylquinoxalin-5-yl)benzo[d]thiazol-6-yl)oxy)butan-2-yl (6-(hydroxymethyl)pyridin-3-yl)carbamate] reads 4.4 nM.
The result for `COc1cnc2c(-c3nc4cc(F)c(O[C@@H](C)[C@@H](C)OC(=O)Nc5ccc(C(C)(C)O)nc5)cc4s3)cc(C)cc2n1` [Example 500, (2R,3S)-3-((5-fluoro-2-(2-methoxy-7-methylquinoxalin-5-yl)benzo[d]thiazol-6-yl)oxy)butan-2-yl (6-(2-hydroxypropan-2-yl)pyridin-3-yl)carbamate] reads 3.8 nM.
